Source: US20240383908A1, “SYNTHESIS AND APPLICATION OF PHOSPHATASE DEGRADER” (HINOVA PHARMACEUTICALS INC., priority 2021, published 2024)

Molecular target: T1, SHP2 protein (Homo sapiens, UniProt Q06124)
T1 sequence (Q06124 1-593): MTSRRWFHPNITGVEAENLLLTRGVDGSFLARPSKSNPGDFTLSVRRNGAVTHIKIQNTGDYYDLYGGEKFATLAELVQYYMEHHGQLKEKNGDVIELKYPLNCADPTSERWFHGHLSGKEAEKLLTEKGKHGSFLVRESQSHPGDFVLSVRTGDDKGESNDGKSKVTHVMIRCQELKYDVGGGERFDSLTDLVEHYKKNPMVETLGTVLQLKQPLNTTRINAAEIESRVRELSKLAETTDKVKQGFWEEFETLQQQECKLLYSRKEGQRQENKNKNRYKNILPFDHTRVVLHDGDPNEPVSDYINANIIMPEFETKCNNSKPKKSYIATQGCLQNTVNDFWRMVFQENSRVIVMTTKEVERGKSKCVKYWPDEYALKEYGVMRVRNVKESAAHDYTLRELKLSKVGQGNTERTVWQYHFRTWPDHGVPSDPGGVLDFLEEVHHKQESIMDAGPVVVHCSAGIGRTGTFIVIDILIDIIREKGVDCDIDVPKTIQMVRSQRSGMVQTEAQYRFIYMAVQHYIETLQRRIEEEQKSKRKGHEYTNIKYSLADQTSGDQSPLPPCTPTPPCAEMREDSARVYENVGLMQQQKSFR
Experiment: Degradation activity on SHP2 protein in MV-411 cells (Western blot, DC50)
Assay type: cell-based
Parameters: endogenous in cells
Details: MV411 cells, 24 hours, read-out: Degradation activity for differenct cell lines MV411 (DC50)
How it was run: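 MV-411 cells (1×10^6 cells/well, IMDM + 10% FBS) were treated 24 h with compound at 0.1-100 nM final, 0.1% DMSO, duplicates. SHP2 measured by Western blot against GAPDH, band density normalised to DMSO control; DC50 from dose-response fit.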

DC50	Structure (SMILES)
> 1000 nM	Cc1ncsc1-c1ccc([C@H](C)NC(=O)[C@@H]2C[C@@H](O)CN2C(=O)[C@@H](NC(=O)CCCCCCCCCCN2CCC(C(=O)Nc3cccc(Sc4cnc(N5CCC(C)(N)CC5)cn4)c3)CC2)C(C)(C)C)cc1 [Compound 36]
100 to 1000 nM	CC1(N)CCN(c2cnc(Sc3cccc(NC(=O)CCCCCCN4CC5(CCN(C(=O)[C@@H]6C[C@H]6C(=O)NCc6ccc7c(c6)CN(C6CCC(=O)NC6=O)C7=O)C5)C4)c3)cn2)CC1 (stereo partly drawn) [Compound 127]
< 100 nM	CC1(N)CCN(c2cnc(Sc3cccc(NC(=O)COCCCCCN4CC5(CCN(c6ccc(C(=O)NCc7ccc8c(c7)CN(C7CCC(=O)NC7=O)C8=O)nn6)C5)C4)c3)cn2)CC1 (stereo not drawn) [Compound 124]
< 100 nM	Cc1ncsc1-c1ccc([C@H](C)NC(=O)[C@@H]2C[C@@H](O)CN2C(=O)[C@@H](NC(=O)CCCCCCCCC(=O)Nc2cccc(Sc3cnc(N4CCC(C)(N)CC4)cn3)c2)C(C)(C)C)cc1 [Compound 52]
100 to 1000 nM	CC1(N)CCN(c2cnc(Sc3cccc(NC(=O)CCCCCC(=O)N4CC5(CCN(C(=O)[C@@H]6C[C@H]6C(=O)NCc6ccc7c(c6)CN(C6CCC(=O)NC6=O)C7=O)C5)C4)c3)cn2)CC1 (stereo partly drawn) [Compound 131]
< 100 nM	C[C@@H]1OCC2(CCN(c3cnc(Sc4cccc(NC(=O)CCN5CC6(CCN(c7ccc(C(=O)NCc8ccc9c(c8)CN(C8CCC(=O)NC8=O)C9=O)nn7)C6)C5)c4)cn3)CC2)[C@@H]1N (stereo partly drawn) [Compound 108]
> 1000 nM	Cc1ncsc1-c1ccc([C@H](C)NC(=O)[C@@H]2C[C@@H](O)CN2C(=O)[C@@H](NC(=O)/C=C/C(=O)N2CC3(CN(CCCCCCCC(=O)Nc4cccc(Sc5cnc(N6CCC(C)(N)CC6)cn5)c4)C3)C2)C(C)(C)C)cc1 [Compound 115]
100 to 1000 nM	Cc1ncsc1-c1ccc([C@H](C)NC(=O)[C@@H]2C[C@@H](O)CN2C(=O)[C@@H](NC(=O)c2ccc(N3CC4CCC(C3)N4CCCCCCCCC(=O)Nc3cccc(Sc4cnc(N5CCC(C)(N)CC5)cn4)c3)nn2)C(C)(C)C)cc1 [Compound 118]
> 1000 nM	CC1(N)CCN(c2cnc(Sc3cccc(NC(=O)CCCCCCCCCCCCC(=O)NCc4ccc5c(c4)CN(C4CCC(=O)NC4=O)C5=O)c3)cn2)CC1 (stereo not drawn) [Compound 41]
> 1000 nM	Cc1ncsc1-c1ccc([C@H](C)NC(=O)[C@@H]2C[C@@H](O)CN2C(=O)[C@@H](NC(=O)/C=C/C(=O)N2CCC3(CN(CCCCCCC(=O)Nc4cccc(Sc5cnc(N6CCC(C)(N)CC6)cn5)c4)C3)C2)C(C)(C)C)cc1 [Compound 116]
100 to 1000 nM	CC1(N)CCN(c2cnc(Sc3cccc(NC(=O)CCCCCCCC(=O)NCc4ccc5c(c4)CN(C4CCC(=O)NC4=O)C5=O)c3)cn2)CC1 (stereo not drawn) [Compound 2]
100 to 1000 nM	Cc1ncsc1-c1ccc([C@H](C)NC(=O)[C@@H]2C[C@@H](O)CN2C(=O)[C@@H](NC(=O)c2ccc(N3CCN(CCCCCCCCC(=O)Nc4cccc(Sc5cnc(N6CCC(C)(N)CC6)cn5)c4)CC3)nn2)C(C)(C)C)cc1 [Compound 62]
> 1000 nM	CC1(N)CCN(c2cnc(Sc3cccc(NC(=O)CCC(=O)N4CC5(CN(CCCCCCCC(=O)Nc6ccc7c(c6)C(=O)N(C6CCC(=O)NC6=O)C7)C5)C4)c3)cn2)CC1 (stereo not drawn) [Compound 26]
< 100 nM	Cc1ncsc1-c1ccc([C@H](C)NC(=O)[C@@H]2C[C@@H](O)CN2C(=O)[C@@H](NC(=O)CCCCCCCN2CC3(C2)CN(C(=O)[C@@H]2C[C@H]2C(=O)Nc2cccc(Sc4cnc(N5CCC(C)(N)CC5)cn4)c2)C3)C(C)(C)C)cc1 [Compound 39]
> 1000 nM	CC1(N)CCN(c2cnc(Sc3cccc(NC(=O)CCCCCCCCCC(=O)NCc4ccc5c(c4)CN(C4CCC(=O)NC4=O)C5=O)c3)cn2)CC1 (stereo not drawn) [Compound 57]
> 1000 nM	CC1(N)CCN(c2cnc(Sc3cccc(NC(=O)CCCCCCCN4CC5(C4)CN(C(=O)/C=C/C(=O)NCc4ccc6c(c4)CN(C4CCC(=O)NC4=O)C6=O)C5)c3)cn2)CC1 (stereo not drawn) [Compound 114]
< 100 nM	CC1(N)CCN(c2cnc(Sc3cccc(NC(=O)CCCCCCCN4CC5(CC(n6cc(C(=O)NCc7ccc8c(c7)CN(C7CCC(=O)NC7=O)C8=O)cn6)C5)C4)c3)cn2)CC1 (stereo not drawn) [Compound 128]
> 1000 nM	Cc1ncsc1-c1ccc([C@H](C)NC(=O)[C@@H]2C[C@@H](O)CN2C(=O)[C@@H](NC(=O)c2cnc(N3CCN(CCCCCCCCC(=O)Nc4cccc(Sc5cnc(N6CCC(C)(C(N)=O)CC6)cn5)c4)CC3)nc2)C(C)(C)C)cc1 [Compound 60]
< 100 nM	Cc1ncsc1-c1ccc([C@H](C)NC(=O)[C@@H]2C[C@@H](O)CN2C(=O)[C@@H](NC(=O)CCCCCCCCN2CCN(C(=O)C3CC3C(=O)Nc3cccc(Sc4cnc(N5CCC(C)(N)CC5)cn4)c3)CC2)C(C)(C)C)cc1 (stereo partly drawn) [Compound 77]
< 100 nM	CC1(N)CCN(c2cnc(Sc3cccc(NC(=O)CCCCCN4CC5(CCN(c6ccc(C(=O)NCc7ccc8c(c7)CN(C7CCC(=O)NC7=O)C8=O)nn6)C5)C4)c3)cn2)CC1 (stereo not drawn) [Compound 164]

DC50	Structure (SMILES)
> 1000 nM	CC1(N)CCN(c2cnc(Sc3cccc(NC(=O)/C=C/C(=O)N4CCC5(CN(CCCCCCC(=O)NCc6ccc7c(c6)CN(C6CCC(=O)NC6=O)C7=O)C5)C4)c3)cn2)CC1 (stereo not drawn) [Compound 151]
< 100 nM	CC1(N)CCN(c2cnc(Sc3cccc(NC(=O)CCC(=O)N4CCN(CCCCCCCCC(=O)NCc5ccc6c(c5)CN(C5CCC(=O)NC5=O)C6=O)CC4)c3)cn2)CC1 (stereo not drawn) [Compound 27]
< 100 nM	NC1CCN(c2cnc(Sc3cccc(NC(=O)CCCCCCCCN4C5CCC4CN(c4ccc(C(=O)NCc6ccc7c(c6)CN(C6CCC(=O)NC6=O)C7=O)nn4)C5)c3)cn2)CC1F (stereo not drawn) [Compound 143]
< 100 nM	CCC1(N)CCN(c2cnc(Sc3cccc(NC(=O)CCCCCCN4CC5(CCN(c6ccc(C(=O)N(C)Cc7ccc8c(c7)CN(C7CCC(=O)NC7=O)C8=O)nn6)C5)C4)c3)cn2)CC1 (stereo not drawn) [Compound 162]
< 100 nM	Cc1ncsc1-c1ccc([C@H](C)NC(=O)[C@@H]2C[C@@H](O)CN2C(=O)[C@@H](NC(=O)c2cnc(N3CCN(CCCC(=O)Nc4cccc(Sc5cnc(N6CCC(C)(N)CC6)cn5)c4)CC3)nc2)C(C)(C)C)cc1 [Compound 82]
> 1000 nM	CC1(N)CCN(c2cnc(Sc3cccc(NC(=O)CC(=O)Nc4cccc5c4CN(C4CCC(=O)NC4=O)C5=O)c3)cn2)CC1 (stereo not drawn) [Compound 5]
> 1000 nM	CC1(N)CCN(c2cnc(Sc3cccc(NC(=O)CCN4CCN(Cc5ccc(COc6cccc7c6CN(C6CCC(=O)NC6=O)C7=O)cc5)CC4)c3)cn2)CC1 (stereo not drawn) [Compound 84]
> 1000 nM	CC1(N)CCN(c2cnc(Sc3cccc(NC(=O)CCC(=O)NCCOCCOCC(=O)NCc4ccc5c(c4)CN(C4CCC(=O)NC4=O)C5=O)c3)cn2)CC1 (stereo not drawn) [Compound 19]
> 1000 nM	N[C@H]1CCN(c2cnc(Sc3cccc(NC(=O)CCCCCN4CC5(CCN(c6ccc(C(=O)NCc7ccc8c(c7)CN(C7CCC(=O)NC7=O)C8=O)nn6)C5)C4)c3)cn2)C[C@@H]1O (stereo partly drawn) [Compound 196]
< 100 nM	C[C@@H]1OCC2(CCN(c3cnc(Sc4cccc(NC(=O)COCCCCCN5CC6(CCN(c7ccc(C(=O)NCc8ccc9c(c8)CN(C8CCC(=O)NC8=O)C9=O)nn7)C6)C5)c4)cn3)CC2)[C@@H]1N (stereo partly drawn) [Compound 121]
> 1000 nM	CC1(N)CCN(c2cnc(Sc3cccc(NC(=O)COCCOCCOCCOCC(=O)Nc4ccc5c(c4)CN(C4CCC(=O)NC4=O)C5=O)c3)cn2)CC1 (stereo not drawn) [Compound 18]
> 1000 nM	Cc1nc2cccc(NC(=O)COCCOCCNC(=O)CCC(=O)Nc3cccc(Sc4cnc(N5CCC(C)(N)CC5)cn4)c3)c2c(=O)n1C1CCC(=O)NC1=O (stereo not drawn) [Compound 20]
< 100 nM	CC1(N)CCN(c2cnc(Sc3cccc(NC(=O)CCCCCCCN4CC5(CCN(Cc6ccc(COc7cccc8c7CN(C7CCC(=O)NC7=O)C8=O)cc6)C5)C4)c3)cn2)CC1 (stereo not drawn) [Compound 68]
< 100 nM	CC1(N)CCN(c2cnc(Sc3cccc(NC(=O)CCCCCCCOC4CCN(c5ncc(C(=O)Nc6ccc7c(c6)CN(C6CCC(=O)NC6=O)C7=O)cn5)CC4)c3)cn2)CC1 (stereo not drawn) [Compound 93]
< 100 nM	Cc1ncsc1-c1ccc([C@H](C)NC(=O)[C@@H]2C[C@@H](O)CN2C(=O)[C@@H](NC(=O)c2ccc(N3CC[C@H](OCCCCCCCC(=O)Nc4cccc(Sc5cnc(N6CCC(C)(N)CC6)cn5)c4)C3)nn2)C(C)(C)C)cc1 [Compound 101]
< 100 nM	C[C@@H]1OCC2(CCN(c3cnc(Sc4cccc(NC(=O)CCN5CC6(CCN(c7ccc(COc8cccc9c8CN(C8CCC(=O)NC8=O)C9=O)nn7)C6)C5)c4)cn3)CC2)[C@@H]1N (stereo partly drawn) [Compound 132]
> 1000 nM	Cc1nc2cccc(NC(=O)CCCCCCCCN3CCN(C(=O)CCC(=O)Nc4cccc(Sc5cnc(N6CCC(C)(N)CC6)cn5)c4)CC3)c2c(=O)n1C1CCC(=O)NC1=O (stereo not drawn) [Compound 35]
< 100 nM	CC1(CN)CCN(c2cnc(Sc3cccc(NC(=O)CCC(=O)N4CCN(CCCCCCCCC(=O)NCc5ccc6c(c5)CN(C5CCC(=O)NC5=O)C6=O)CC4)c3Cl)cn2)CC1 (stereo not drawn) [Compound 15, 9-(4-(4-((3-((5-(4-(aminomethyl)-4-methylpyridin-1-yl)pyrazin-2-yl)thio)-2-chlorophenyl)amino)-4-oxobutyryl)piperazin-1-yl)-N-((2-(2,6-dioxopiperidin-3-yl)-1-oxoisoindol-5-yl)methyl)nonanamide]
< 100 nM	CN(Cc1ccc2c(c1)CN(C1CCC(=O)NC1=O)C2=O)C(=O)c1ccc(N2CCC3(CC(OCCCCCC(=O)Nc4cccc(Sc5cnc(N6CCC(C)(N)CC6)cn5)c4)C3)C2)nn1 (stereo not drawn) [Compound 167]
